From patent US20240199455A1, “REMOVAL OF TOXIC OXYANIONS BY CO-CRYSTALLIZATION WITH SULFATE” (UT-Battelle, LLC, priority 2022, published 2024)

Assays:
[1] = Crystallization of individual oxyanion (5 mM) with BIG chloride, ICP-MS of filtrate; conditions: for selenate removal efficiency: 5 mM selenate alone; for sulfate removal efficiency: 5 mM sulfate alone
Description: (§1) In a typical experiment, BIG chloride was added to wastewater containing sulfate, selenate, and/or selenite anions, and immediately upon addition, a white precipitate formed. The resulting suspensions were mixed for 24 h using a rotator set at 60 rpm inside an incubator set to 25 C. The samples were then removed and centrifuged for 10 min at 3000 rpm to separate the aqueous and solid phases. In the field, the suspended solids were filtered through a filter press. A 1 mL aliquot was then removed from each sample and passed through a 0.02 μm syringe filter to ensure any suspended solid was removed from the filtrate prior to diluting the samples in 2% HNO3 for ICP-MS analysis. To recover the BIG ligand, 2.1 equiv. of NaOH (or adjusted to a pH of 11) was added to a suspension of the BIG-oxyanion salts in a 15 mL polypropylene centrifuge tube. The suspension was mixed for 24 h at 60 rpm. The suspended BIG neutral solid was filtered from the supernatant solutions containing the oxyanions dissolved as soluble sodium salts. The BIG chloride salts were then regenerated by the addition of 0.1 M HCl to the neutral ligands. This process is depicted schematically in FIG. 5.
Crystallization studies with BBIG and individual sulfate, selenate, or selenite anions (5 mM) were performed, while the concentration of BIGs was increased from one to ten molar equivalents. […] On the other hand, only approximately half (53.0%, FIG. 2a) of the selenite was removed from the solution with 1 equivalent of BBIG, which can be attributed to its propensity to form HScO3^−, by deprotonating BBIG in the process. […] Once again, selenite was removed to a lesser extent (70.7%) with 1 equivalent of PyBIG (FIG. 2b).

[2] = Cocrystallization from equimolar sulfate/selenate mixture (2.5 mM each); conditions: for selenate removal / sulfate removal: 2.5 mM sulfate + 2.5 mM selenate; for ratio of sulfate to selenate % removal: equimolar mixture
Description: as §1
Concomitant crystallization of sulfate and selenate with either BBIG or PyBIG led to near quantitative removal of both oxyanions from equimolar aqueous mixtures. Cocrystallization experiments were carried out keeping the concentration of sulfate and selenate at near equimolar concentrations of 2.5 mM, while the BIG concentrations were increased gradually from 5 to 50 mM. […] At higher BBIG concentrations, the oxyanion removal remained near quantitative. Referring to the ratio of sulfate to selenate % removal, a ratio of 1.0 indicates there is no preference for sulfate over selenate. […] At relative ligand concentrations higher than 1 equivalent of BBIG, the ratio of removal efficiencies approaches 1, indicating no preference between the two oxyanions by crystallization under these conditions.
PyDIG also quantitatively removed sulfate and selenate at higher BIG concentrations. […] Increasing the PyBIG concentration achieved a ratio of approximately 1, indicating no discrimination between sulfate and selenate with excess PyBIG. With both BBIG and PyBIG, it appears the 2:1 BIG:oxyanions ratio is ideal for effectively removing SO4^2− and SeO4^2− anions from solution with minimal excess of the BIG ligands.

[3] = Crystallization at constant 2.5 mM sulfate and decreasing selenate (2.5 mM to 2.5 μM); conditions: 2.5 mM sulfate
Description: as §1
Crystallization experiments were carried out keeping sulfate at a constant concentration and decreasing the selenate concentration while maintaining constant ionic strength to mimic wastewater conditions. These experiments were carried out at 1 and 2 molar equivalents of BBIG or PyBIG. […] At lower selenate concentrations of 250, 25, and 2.5 μM, there is no discernible preference between the oxyanions. […] At the lowest concentration of selenate, the amount remaining in solution after crystallization is below the limit of detection of 0.02 ppb Se. The same trend is observed for PyBIG, with near quantitative removal of both sulfate and selenate.

[4] = Cocrystallization from simulated Bull Run groundwater
Description: as §1
The efficacies of sulfate and selenate removal with BBIG and PyBIG ligands were next tested with simulated wastewater to determine if the EPA's 5 ppb discharge limit was achievable. The initial concentrations of sulfate and selenate in the simulated wastewater were based on typical values found in groundwaters monitored at the Bull Run steam plant of Tennessee Valley Authority (TVA). The simulated Bull Run groundwater contained an 8985-fold excess concentration of sulfate relative to selenate, with sulfate and selenate concentrations of 5.84±0.11 mM and 0.65±0.07 μM, respectively. Cocrystallization studies were performed with 1 and 2 mol equiv of BBIG or PyBIG. […] On the other hand, selenate removal was near quantitative with 2 equiv of BBIG (FIG. 4a).

[5] = Cocrystallization from simulated Bull Run leachate
Description: as §1
A more concentrated simulated wastewater solution based on Bull Run's leachate water that has leached from fly ash beds was also tested with BBIG and PyBIG. The concentrations of sulfate and selenate in the simulated leachate were 48.49±0.7 mM and 2.37±0.16 μM, respectively, with sulfate concentration being 20,460 times higher than that of selenate. In the case of BBIG, 1 equiv removed 96.3% and 95.4% sulfate and selenate, respectively, while 2 equiv removed sulfate and selenate near quantitatively at 99.90% and 99.94%, respectively, with a final Se concentration of 8.59±0.62 ppb (1 equiv) and 0.20±0.01 ppb (2 equiv). In the case of PyBIG, 89.2% and 85.5% sulfate and selenate, respectively, were removed with 1 equiv, and 99.98% and 99.99%, respectively with 2 equiv. The final Se concentrations after cocrystallization with PyBIG were 27.23±0.92 ppb (1 equiv) and 0.02±0.01 ppb (2 equiv), reaching the limit of detection. […] In fact, the large excess of sulfate present in the wastewaters appears to help remove trace amounts of selenate by cocrystallization with BBIG or PyBIG, down to sub-ppb levels of Se.

[6] = BIG at twice the oxyanion concentration (10 mM)
[7] = 1 molar equivalent BIG relative to total oxyanion
[8] = BIG increased to 2 equivalents (PyBIG: increased concentration, plateau after 2 equivalents)
[9] = simulated groundwater (5.84 mM sulfate, 0.65 μM selenate), 1 equiv BIG
[10] = simulated groundwater, 2 equiv BIG
[11] = simulated leachate (48.49 mM sulfate, 2.37 μM selenate), 1 equiv BIG
[12] = simulated leachate, 2 equiv BIG

## N=C(N)N/N=C/c1cccc(/C=N/NC(=N)N)n1 [PyBIG, pyridinedialdehydebis(iminoguanidinium)]
[1]; 5 mM (1 equiv) BIG
  selenate removal efficiency: 93.9%
[1]; [6]
  selenate removal efficiency: 99.8%
  sulfate removal efficiency: 99.9%
[1]; 5 mM selenite alone, 1 equivalent BIG
  selenite removal efficiency: 70.7%
[1]; 5 mM (1 equiv) BIG, 24 h, 25 C
  sulfate removal efficiency: 95.0%
[2]; [7]
  selenate removal: 75.6%
  sulfate removal: 82.3%
[2]; [8]
  selenate removal: 99.7%
  sulfate removal: 97.8%
[2]; 1 equivalent BIG, 1.0 = no preference
  ratio of sulfate to selenate % removal: 0.84
[2]; more than 1 equivalent (excess) BIG
  ratio of sulfate to selenate % removal: approximately 1
[3]; 1 equiv BIG
  selenate removal: 75.6%
  sulfate removal: 82.3%
[3]; 2 equiv BIG
  selenate removal: > 99.7%
  sulfate removal: > 99.7%
[4]; [9]
  selenate removal: 81.6%
  sulfate removal: 88.5%
[4]; simulated groundwater, 1 equiv BIG
  final Se concentration: 9.39±0.34 ppb
[4]; [10]
  final Se concentration: 0.02±0.01 ppb
  selenate removal: 99.96%
  sulfate removal: 99.94%
[5]; simulated groundwater and leachate
  sulfate-to-selenate removal ratio: approximately one
[5]; [11]
  selenate removal: 85.5%
  sulfate removal: 89.2%
[5]; simulated leachate, 1 equiv BIG
  final Se concentration: 27.23±0.92 ppb
[5]; [12]
  final Se concentration: 0.02±0.01 ppb
  selenate removal: 99.99%
  sulfate removal: 99.98%
